Target: Urease [D459Y,K653P] (Canavalia ensiformis, UniProt P07374, D459Y/K653P)
Test: In vitro Urease Inhibition Assay
Conditions: pH 8.2
Procedure: Urease inhibition activity was determined by indophenol method. […] Initially, urease enzyme and the test compound were incubated in the assay buffer for 30 minutes (in a linear reaction range) at 37 °C, 40 µL of phenol and alkali reagents were added to stop the reaction. […] All the assays were performed in triplicate.

Chain of Urease [D459Y,K653P] (P07374 whole entry D459Y/K653P): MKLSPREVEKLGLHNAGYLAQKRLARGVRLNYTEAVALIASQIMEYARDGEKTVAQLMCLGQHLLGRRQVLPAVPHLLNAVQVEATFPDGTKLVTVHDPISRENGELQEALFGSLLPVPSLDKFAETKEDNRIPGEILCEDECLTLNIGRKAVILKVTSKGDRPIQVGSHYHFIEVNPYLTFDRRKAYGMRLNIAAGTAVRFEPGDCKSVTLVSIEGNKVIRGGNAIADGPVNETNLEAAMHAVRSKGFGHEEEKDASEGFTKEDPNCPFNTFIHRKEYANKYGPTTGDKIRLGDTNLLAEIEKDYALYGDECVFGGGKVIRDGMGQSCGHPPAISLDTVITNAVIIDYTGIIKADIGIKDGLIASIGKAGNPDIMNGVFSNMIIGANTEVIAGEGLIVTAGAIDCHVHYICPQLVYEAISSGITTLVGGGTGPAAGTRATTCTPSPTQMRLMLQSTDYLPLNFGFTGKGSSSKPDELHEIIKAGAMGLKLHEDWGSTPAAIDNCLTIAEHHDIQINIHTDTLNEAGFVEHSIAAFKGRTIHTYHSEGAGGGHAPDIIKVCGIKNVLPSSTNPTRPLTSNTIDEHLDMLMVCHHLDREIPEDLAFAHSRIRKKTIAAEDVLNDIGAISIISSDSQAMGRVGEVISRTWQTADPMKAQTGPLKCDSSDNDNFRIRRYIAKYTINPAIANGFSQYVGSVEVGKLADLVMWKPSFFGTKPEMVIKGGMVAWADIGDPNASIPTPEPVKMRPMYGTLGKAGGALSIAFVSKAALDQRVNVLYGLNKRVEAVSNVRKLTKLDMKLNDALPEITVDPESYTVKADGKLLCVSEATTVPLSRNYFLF

Structure (SMILES)	IC50 [µM]
NC(=S)N/N=C/Cc1ccc2ccc3cccc4ccc1c2c34 [[(E)-[2-(pyren-1-yl)ethylidene]amino]thiourea (3m)]	4.84
Cc1ccc(C/C=N/NC(N)=S)o1 [[(E)-[2-(5-methylfuran-2-yl)ethylidene]amino]thiourea (3g)]	3.23
NC(=S)N/N=C/Cc1cccnc1 [[(E)-[2-(pyridin-3-yl)ethylidene]amino]thiourea (3b)]	2.41
NC(=S)N/N=C/Cc1ccc(OCc2ccccc2)cc1 [[(E)-{2-[4-(benzyloxy)phenyl]ethylidene}amino]thiourea (3k)]	3.64
NC(=S)N/N=C/Cc1ccco1 [[(E)-[2-(furan-2-yl)ethylidene]amino]thiourea (3f)]	0.58
COc1cc(C/C=N/NC(N)=S)ccc1OCc1ccccc1 [[(E)-{2-[4-(benzyloxy)-3-methoxyphenyl]ethylidene}amino]thiourea (3l)]	75.1
NC(=S)N/N=C/Cc1ccccc1 [[(E)-(2-phenylethylidene)amino]thiourea (3j)]	4.24
NC(=S)N/N=C/Cc1ccccn1 [[(E)-[2-(pyridin-2-yl)ethylidene]amino]thiourea (3a)]	2.65

From BindingDB's records for doi:10.1111/cbdd.12379 (Quaid-I-Azam University, 2015)
